In patent US20090221829A1 (priority 2005, published 2009):

tested on: Candida albicans(KCTC 1940), Aspergillus niger (ATCC 9642) and Saccharomyces cerevisiae; assay: Relative antifungal activity by agar dilution method (vs Miconazole); assay type: cell-based; conditions: agar dilution method; fungicidal concentration relative to control drug Miconazole (=4);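 note: scores 5 to 7 mean a lower fungicidal concentration than Miconazole so higher is more potent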
From the text: Novel compounds represented by the above chemical formula (I), and the relative activities in accordance with the agar dilution method in Sabouraud dextrose agar media, Czapek agar media and Yeast Extract-Peptone-Dextrose agar media for Candida albicans(KCTC 1940), Aspergillus niger (ATCC 9642) and Saccharomyces cerevisiae are described respectively in following Table 1.

First: CCCCCCCCCCCC1=[N+](Cc2c(F)cccc2F)CCc2cc(OC)c(OC)cc21.[Cl-] [Compound No. 59, 1-n-undecyl-2-(2,6-difluorophenyl)methyl-3,4-dihydro-6,7-dimethoxyisoquinolinium chloride]
Second: CCCCCCCCCCCC1=[N+](Cc2c(F)cccc2Cl)CCc2cc(OC)c(OC)cc21.[Cl-] [Compound No. 68, 1-n-undecyl-2-(2-chloro-6-fluorophenyl)methyl-3,4-dihydro-6,7-dimethoxyisoquinolinium chloride]
The “Relative Activity” value of the first is lower: 1 for the first, 2 for the second.

First: COc1cc2c(cc1OC)C(C(C)C)=[N+](Cc1ccc(F)c(F)c1)CC2.[Cl-] [Compound No. 40, 1-i-propyl-2-(3,4-difluorophenyl)methyl-3,4-dihydro-6,7-dimethoxyisoquinolinium chloride]
Second: CCCCCCC1=[N+](Cc2ccc(F)c(F)c2)CCc2cc(OC)c(OC)cc21.[Cl-] [Compound No. 42, 1-n-hexyl-2-(3,4-difluorophenyl)methyl-3,4-dihydro-6,7-dimethoxyisoquinolinium chloride]
The “Relative Activity” value of the first is higher: 6 for the first, 4 for the second.

Going from `CCCC1=[N+](Cc2ccccc2F)CCc2cc(OC)c(OC)cc21.[Cl-]` [Compound No. 5, 1-propyl-2-(2-fluorophenyl)methyl-3,4-dihydro-6,7-dimethoxyisoquinolinium chloride] to `CCCCCC1=[N+](Cc2ccccc2F)CCc2cc(OC)c(OC)cc21.[Cl-]` [Compound No. 9, 1-n-pentyl-2-(2-fluorophenyl)methyl-3,4-dihydro-6,7-dimethoxyisoquinolinium chloride], the “Relative Activity” value falls from 5 to 4.

First: CCCCCCCCCCCCCCCC1=[N+](Cc2ccccc2F)CCc2cc(OC)ccc21.[Cl-] [Compound No. 89, 1-n-pentadecyl-2-(2-fluorophenyl)methyl-3,4-dihydro-6-methoxyisoquinolinium chloride]
Second: CCCCCCCCCCCC1=[N+](Cc2ccccc2F)CCc2cc(OC)ccc21.[Cl-] [Compound No. 88, 1-n-undecyl-2-(2-fluorophenyl)methyl-3,4-dihydro-6-methoxyisoquinolinium chloride]
The “Relative Activity” value of the first is lower: 1 for the first, 2 for the second.

`COc1cc2c(cc1OC)CC[N+](Cc1ccccc1F)=C2.[Cl-]` [Compound No. 1, 2-(2-fluorophenyl)methyl-3,4-dihydro-6,7-dimethoxy-isoquinolinium chloride] and `COc1cc2c(cc1OC)C(C)=[N+](Cc1ccccc1F)CC2.[Cl-]` [Compound No. 2, 1-methyl-2-(2-fluorophenyl)methyl-3,4-dihydro-6,7-dimethoxy-isoquinolinium chloride] are the same in “Relative Activity” value: 6 for the first, 6 for the second.

`COc1cc2c(cc1OC)C(c1ccc(C(C)(C)C)cc1)=[N+](Cc1ccc(C(F)(F)F)cc1)CC2.[Cl-]` [Compound No. 32, 1-(4-t-butylphenyl)-2-(4-trifluoromethylphenyl)methyl-3,4-dihydro-6,7-dimethoxyisoquinolinium chloride] and `COc1cc2c(cc1OC)C(c1ccccc1F)=[N+](Cc1ccc(C(F)(F)F)cc1)CC2.[Cl-]` [Compound No. 31, 1-(2-fluorophenyl)-2-(4-trifluoromethylphenyl)methyl-3,4-dihydro-6,7-dimethoxyisoquinolinium chloride] are the same in “Relative Activity” value: 6 for the first, 6 for the second.

`COc1cc2c(cc1OC)C(c1ccccc1F)=[N+](Cc1ccccc1F)CC2.[Cl-]` [Compound No. 14, 1-(2-fluorophenyl)-2-(2-fluorophenyl)methyl-3,4-dihydro-6,7-dimethoxyisoquinolinium chloride] and `COc1ccc2c(c1)CC[N+](Cc1ccccc1F)=C2c1ccccc1F.[Cl-]` [Compound No. 90, 1-(2-fluorophenyl)-2-(2-fluorophenyl)methyl-3,4-dihydro-6-methoxyisoquinolinium chloride] are the same in “Relative Activity” value: 6 for the first, 6 for the second.

`CCCCCCCC1=[N+](Cc2ccc(F)c(F)c2)CCc2cc3c(cc21)OCO3.[Cl-]` [Compound No. 112, 1-n-heptyl-2-(3,4-difluorophenyl)methyl-3,4-dihydro-6,7-methylenedioxyisoquinolinium chloride] and `CCCCCCCC1=[N+](Cc2ccc(C(F)(F)F)cc2)CCc2cc3c(cc21)OCO3.[Cl-]` [Compound No. 108, 1-n-heptyl-2-(4-trifluoromethylphenyl)methyl-3,4-dihydro-6,7-methylenedioxyisoquinolinium chloride] are the same in “Relative Activity” value: 4 for the first, 4 for the second.

Compared with `COc1cc2c(cc1OC)C(CCc1ccc(C(C)(C)C)cc1)=[N+](Cc1ccccc1F)CC2` [Compound No. 124, 1-(2-(4-t-butylphenyl))ethyl-2-(2-fluorophenyl)methyl-3,4-dihydro-6,7-dimethoxyisoquinolinium chloride], `COc1cc2c(cc1OC)C(CCCCl)=[N+](Cc1ccccc1F)CC2.[Cl-]` [Compound No. 7, 1-(3-chloropropyl)-2-(2-fluorophenyl)methyl-3,4-dihydro-6,7-dimethoxyisoquinolinium chloride] is higher in “Relative Activity” value: 2 for the first, 5 for the second.

`CCCCCCC1=[N+](Cc2ccc(C(F)(F)F)cc2)CCc2cc(OC)c(OC)cc21.[Cl-]` [Compound No. 45, 1-n-hexyl-2-(4-trifluoromethylphenyl)methyl-3,4-dihydro-6,7-dimethoxyisoquinolinium chloride] and `CCCCCCCC1=[N+](Cc2ccc(C(F)(F)F)cc2)CCc2cc(OC)c(OC)cc21.[Cl-]` [Compound No. 28, 1-n-heptyl-2-(4-trifluoromethylphenyl)methyl-3,4-dihydro-6,7-dimethoxyisoquinolinium chloride] are the same in “Relative Activity” value: 4 for the first, 4 for the second.

First: CCCCCCCCCCCC1=[N+](Cc2ccccc2[N+](=O)[O-])CCc2cc(OC)c(OC)cc21.[Cl-] [Compound No. 74, 1-n-undecyl-2-(2-nitrophenyl)methyl-3,4-dihydro-6,7-dimethoxyisoquinolinium chloride]
Second: CCCCCCCCCCCCCCCC1=[N+](Cc2ccc(F)c(F)c2)CCc2cc(OC)c(OC)cc21.[Cl-] [Compound No. 46, 1-n-pentadecyl-2-(3,4-difluorophenyl)methyl-3,4-dihydro-6,7-dimethoxyisoquinolinium chloride]
The “Relative Activity” value of the first is higher: 2 for the first, 1 for the second.

Compared with `COc1ccc2c(c1)CC[N+](Cc1ccccc1F)=C2CC(C)C.[Cl-]` [Compound No. 84, 1-(2-methyl)propyl-2-(2-fluorophenyl)methyl-3,4-dihydro-6-methoxyisoquinolinium chloride], `CCCCCCCCCCCC1=[N+](c2ccc(C(C)(C)C)cc2)CCc2cc(CNC(=O)OCC)c(OC)cc21.[Br-]` [Compound No. 116, ethyl 3,4-dihydro-7-methoxy-6-(4-t-butylphenyl)-1-undecylisoquinolinium-6-ylmethylcabamate bromide] is lower in “Relative Activity” value: 6 for the first, 2 for the second.

`CCCCCCCCCCCC1=[N+](Cc2ccc(NC(=O)OCC)c(NC(=O)OCC)c2)CCc2cc(OC)c(OC)cc21.[Cl-]` [Compound No. 122, 6,7-dimethoxy-2-(3,4-bis(ethoxy Carbonylamino)phenyl)methyl-3,4-dihydro-1-undecylisoquinolinium chloride] was tested, and the “Relative Activity” value was 2.

same assay, conditions: antifungal activity relative to Miconazole, agar dilution

In the case of `CCCCCCCCCCCc1c2cc(OC)c(OC)cc2cc[n+]1Cc1ccc(C(C)(C)C)cc1.[Cl-]` [Compound No. 146, 1-undecyl-2-(4-t-butylphenyl)methyl-6,7-dimethoxyisoquinolinium chloride], the “Relative Activity” value is reported as 2.
